Experimental findings from publication PMC10569036 are described below.

The data set can be described thus: shake flask on a mixture of 185; loss from the water phase only; LC-Orbitrap peak areas. To be noted: room.
In the case of `CC(C)(C#N)Nc1nc(Cl)nc(NC2CC2)n1`, the “log partition 1-octanol / HPLC water, unbuffered, traces of methanol / DMSO” value (“log partition 1-octanol / HPLC water” for short) is given as 2.353 log10; the “log partition butyl acetate / HPLC water, unbuffered, traces of methanol / DMSO” value (shortened to “log partition butyl acetate / HPLC water”) amounted to 1.721 log10; the “log partition chloroform / HPLC water, unbuffered, traces of methanol / DMSO” value (“log partition chloroform / HPLC water” below) was 2.761 log10; the “log partition cyclohexane / HPLC water, unbuffered, traces of methanol / DMSO” value (shortened to “log partition cyclohexane / HPLC water”) is recorded as -0.1053 log10. The “log partition dichloromethane / HPLC water, unbuffered, traces of methanol / DMSO” value is 2.268 log10; the “log partition n-hexane / HPLC water, unbuffered, traces of methanol / DMSO” value (from here on “log partition n-hexane / HPLC water”) was -0.13 log10; the “log partition n-octane / HPLC water, unbuffered, traces of methanol / DMSO” value (from here on “log partition n-octane / HPLC water”) amounted to 0.2329 log10; the “log partition n-undecane / HPLC water, unbuffered, traces of methanol / DMSO” value (from here on “log partition n-undecane / HPLC water”) is given as -0.4376 log10. Also, the “log partition oleylalcohol / HPLC water, unbuffered, traces of methanol / DMSO” value (“log partition oleylalcohol / HPLC water” below) is reported as 1.837 log10 and the “log partition toluene / HPLC water, unbuffered, traces of methanol / DMSO” value (“log partition toluene / HPLC water” for short) came out at 1.234 log10.

Regarding `c1ccc(CCCc2ccncc2)cc1`, the “log partition 1-octanol / HPLC water” value worked out at 0.08604 log10; the “log partition butyl acetate / HPLC water” value is given as -0.4137 log10; the “log partition chloroform / HPLC water” value is listed as -0.0585 log10; the “log partition cyclohexane / HPLC water” value was -0.2421 log10. The “log partition dichloromethane / HPLC water, unbuffered, traces of methanol / DMSO” value came to 0.1807 log10; the “log partition n-hexane / HPLC water” value is recorded as -0.1192 log10; the “log partition n-octane / HPLC water” value was -0.1298 log10; the “log partition n-undecane / HPLC water” value is on record as -0.4578 log10. The “log partition oleylalcohol / HPLC water” value is recorded as -0.2233 log10 and the “log partition toluene / HPLC water” value is given as -0.2508 log10.

Consider `O=C(OC1CCCCC1)c1ccccc1C(=O)OC1CCCCC1`, for which the “log partition 1-octanol / HPLC water” value came out at 0.6596 log10; the “log partition butyl acetate / HPLC water” value stood at 0.2225 log10; the “log partition chloroform / HPLC water” value is 0.1245 log10; the “log partition cyclohexane / HPLC water” value was -0.9365 log10. Also, the “log partition dichloromethane / HPLC water, unbuffered, traces of methanol / DMSO” value amounted to 0.1411 log10; the “log partition n-hexane / HPLC water” value is given as -0.6432 log10; the “log partition n-octane / HPLC water” value is -1.045 log10; the “log partition n-undecane / HPLC water” value is -0.8058 log10. In addition, the “log partition oleylalcohol / HPLC water” value is -0.79 log10 and the “log partition toluene / HPLC water” value was -1.067 log10.

With `CCCCCCC(O)CCCCCCCCCCC(=O)OC` (stereo not drawn), the “log partition 1-octanol / HPLC water” value is given as -0.3995 log10; the “log partition butyl acetate / HPLC water” value is listed as -0.5958 log10; the “log partition chloroform / HPLC water” value was -0.2735 log10; the “log partition cyclohexane / HPLC water” value is reported as -0.4754 log10. For the same compound, the “log partition dichloromethane / HPLC water, unbuffered, traces of methanol / DMSO” value is -1.47 log10; the “log partition n-hexane / HPLC water” value is reported as -1.341 log10; the “log partition n-octane / HPLC water” value is reported as -1.53 log10; the “log partition n-undecane / HPLC water” value is given as -1.718 log10. Further, the “log partition oleylalcohol / HPLC water” value was -0.7143 log10 and the “log partition toluene / HPLC water” value is listed as -1.19 log10.

For the compound `CCCCNC(=S)NCCCC`, the “log partition 1-octanol / HPLC water” value turned out to be 1.103 log10; the “log partition butyl acetate / HPLC water” value is reported as 0.744 log10; the “log partition chloroform / HPLC water” value came out at 0.6525 log10; the “log partition cyclohexane / HPLC water” value is -0.1972 log10. Further, the “log partition dichloromethane / HPLC water, unbuffered, traces of methanol / DMSO” value stood at 0.6427 log10; the “log partition n-hexane / HPLC water” value is recorded as -0.2041 log10; the “log partition n-octane / HPLC water” value was found to be 0.07134 log10; the “log partition n-undecane / HPLC water” value was 0.1833 log10. In addition, the “log partition oleylalcohol / HPLC water” value stood at 0.9527 log10 and the “log partition toluene / HPLC water” value worked out at 0.4176 log10.

As for `CCCCCCCCCCCC(=O)OCC(O)CO` (stereo not drawn), the “log partition 1-octanol / HPLC water” value is -0.5214 log10; the “log partition butyl acetate / HPLC water” value is -0.773 log10; the “log partition chloroform / HPLC water” value is listed as -0.7717 log10; the “log partition cyclohexane / HPLC water” value is listed as -1.167 log10. The “log partition dichloromethane / HPLC water, unbuffered, traces of methanol / DMSO” value is reported as -0.6352 log10; the “log partition n-hexane / HPLC water” value is given as -1.755 log10; the “log partition n-octane / HPLC water” value is recorded as -1.639 log10; the “log partition n-undecane / HPLC water” value is -1.584 log10. Besides, the “log partition oleylalcohol / HPLC water” value is on record as -1.087 log10 and the “log partition toluene / HPLC water” value was -1.18 log10.

On to `CC(=O)/C=C/c1ccccc1`, for which the “log partition 1-octanol / HPLC water” value worked out at 0.1948 log10; the “log partition butyl acetate / HPLC water” value is reported as -0.04199 log10; the “log partition chloroform / HPLC water” value was -0.02485 log10; the “log partition cyclohexane / HPLC water” value is -0.3829 log10. Moreover, the “log partition dichloromethane / HPLC water, unbuffered, traces of methanol / DMSO” value is listed as -0.0685 log10; the “log partition n-hexane / HPLC water” value is -0.3815 log10; the “log partition n-octane / HPLC water” value is reported as -0.655 log10; the “log partition n-undecane / HPLC water” value is reported as -0.7862 log10. The “log partition oleylalcohol / HPLC water” value is reported as -0.0887 log10 and the “log partition toluene / HPLC water” value is on record as -0.2533 log10.

For the compound `O=C(O)c1ccccc1C(c1ccc(O)cc1)c1ccc(O)cc1`, the “log partition 1-octanol / HPLC water” value is recorded as -0.6855 log10; the “log partition butyl acetate / HPLC water” value is given as 0.116 log10; the “log partition chloroform / HPLC water” value was -0.6877 log10; the “log partition cyclohexane / HPLC water” value is recorded as -1.286 log10. Further, the “log partition dichloromethane / HPLC water, unbuffered, traces of methanol / DMSO” value was -0.3134 log10; the “log partition n-hexane / HPLC water” value is listed as -0.9598 log10; the “log partition n-octane / HPLC water” value is recorded as -1.232 log10; the “log partition n-undecane / HPLC water” value is -1.337 log10. In addition, the “log partition oleylalcohol / HPLC water” value was -0.1989 log10 and the “log partition toluene / HPLC water” value is recorded as -0.7201 log10.

`CN(C)c1ccc(Cc2ccc(N(C)C)cc2)cc1`: the “log partition 1-octanol / HPLC water” value turned out to be 0.3418 log10; the “log partition butyl acetate / HPLC water” value was found to be 1.067 log10; the “log partition chloroform / HPLC water” value was 3.139 log10; the “log partition cyclohexane / HPLC water” value worked out at 0.5577 log10. The “log partition dichloromethane / HPLC water, unbuffered, traces of methanol / DMSO” value is reported as 2.123 log10; the “log partition n-hexane / HPLC water” value was -0.5531 log10; the “log partition n-octane / HPLC water” value is 0.3458 log10; the “log partition n-undecane / HPLC water” value is recorded as -0.4236 log10. Moreover, the “log partition oleylalcohol / HPLC water” value is listed as -0.165 log10 and the “log partition toluene / HPLC water” value was found to be 1.554 log10.

As for `FC(F)C(F)(F)OCC(Cn1cncn1)c1ccc(Cl)cc1Cl` (stereo not drawn), the “log partition 1-octanol / HPLC water” value is 1.148 log10; the “log partition butyl acetate / HPLC water” value was found to be 1.223 log10; the “log partition chloroform / HPLC water” value is listed as 0.6534 log10; the “log partition cyclohexane / HPLC water” value is recorded as 0.9109 log10. The “log partition dichloromethane / HPLC water, unbuffered, traces of methanol / DMSO” value is given as 1.238 log10; the “log partition n-hexane / HPLC water” value amounted to 0.4737 log10; the “log partition n-octane / HPLC water” value was 0.5004 log10; the “log partition n-undecane / HPLC water” value came out at 0.1193 log10. Moreover, the “log partition oleylalcohol / HPLC water” value worked out at 0.4709 log10 and the “log partition toluene / HPLC water” value stood at 1.159 log10.

For `Cc1cc(O)cc(C)c1Cl`, the “log partition 1-octanol / HPLC water” value was 0.7604 log10; the “log partition butyl acetate / HPLC water” value is on record as 0.7531 log10; the “log partition chloroform / HPLC water” value is 0.7311 log10; the “log partition cyclohexane / HPLC water” value is listed as 0.5528 log10. The “log partition dichloromethane / HPLC water, unbuffered, traces of methanol / DMSO” value amounted to 0.8657 log10; the “log partition n-hexane / HPLC water” value is given as 0.611 log10; the “log partition n-octane / HPLC water” value is on record as 0.5049 log10; the “log partition n-undecane / HPLC water” value came out at 0.3954 log10. The “log partition oleylalcohol / HPLC water” value is on record as 0.7156 log10 and the “log partition toluene / HPLC water” value is recorded as 0.8203 log10.

Turning to `COc1ccccc1/C=C/C=O`, the “log partition 1-octanol / HPLC water” value was 1.387 log10; the “log partition butyl acetate / HPLC water” value is 0.7851 log10; the “log partition chloroform / HPLC water” value came to 0.6596 log10; the “log partition cyclohexane / HPLC water” value is on record as -0.3102 log10. Further, the “log partition dichloromethane / HPLC water, unbuffered, traces of methanol / DMSO” value was 0.6345 log10; the “log partition n-hexane / HPLC water” value came out at 0.495 log10; the “log partition n-octane / HPLC water” value is on record as -0.2565 log10; the “log partition n-undecane / HPLC water” value is on record as -0.1964 log10. Besides, the “log partition oleylalcohol / HPLC water” value is given as -0.5567 log10 and the “log partition toluene / HPLC water” value worked out at 0.2589 log10.
